Reference: patent US20050096349A1, “Methods to prevent or ameliorate medication-, procedure-or stress-induced cognitive and speech dysfunction and methods to optimize cognitive and speech functioning” (priority 2003, published 2005)

Columns and labels:
[1] = tested on: compulsive shopping (impulse control disorder, not otherwise specified); test: Example 1: case report, topiramate for compulsive shopping; type: in vivo, patient
Text: (§1) Patient is a person with compulsive shopping (impulse control disorder, not otherwise specified), type II diabetes, and obesity. They have no other psychiatric disorders including mood or anxiety disorders.

[2] = tested on: feeling dull and having difficulty concentrating
word finding difficulty = test: Example 1: case report, atomoxetine added for word finding difficulty on topiramate; type: in vivo, patient; conditions: for word finding (patient description): person on topiramate
Text: as §1

[3] = tested on: feeling "cloudy" and "disoriented"; test: Example 3: case report, atomoxetine added for feeling cloudy and disoriented on olanzapine, clonazepam, fiorinal; type: in vivo, patient
Method: Patient is a person with major depression, panic, generalized anxiety disorder, chronic headaches and fibromyalgia. They are on escitalopram 20 mg po qd, olanzapine 7.5 mg po qhs, clonazepam 0.5 mg po bid, and fiorinal prn. […] Atomoxetine was initiated at 18 mg po qd and increased to 25 mg po qd after 8 days.

Row | Structure (SMILES) | weight ([1]; higher dosages of topiramate) | urges and control over shopping behaviors ([1]; person, topiramate dose slowly increased) | cognitive side effect ([1]; topiramate increased to 75 mg po qd) | improvement compared with 25 mg (patient description) ([2]; atomoxetine 40 mg po qd) | side effects ([2]; atomoxetine 40 mg po qd) | concentration and side effects ([2]; atomoxetine alternating 25 mg and 40 mg po qd every other day) | tolerability of effective dose of alpraxolam (2-4 mg/day) ([2]; on atomoxetine alternating 25 mg and 40 mg po qd) | concentration and ability to work (patient description) ([2]; person on escitalopram 20 mg po qd and alprazolam, atomoxetine 25 mg po qd, within a few days) | tolerability of higher topiramate dose (word finding difficulty; atomoxetine 40 mg po qd, tolerated for 2 months) | word finding (patient description) (word finding difficulty; atomoxetine 25 mg po qd, over the next month) | word finding (patient description) (word finding difficulty; atomoxetine 40 mg po qd, over the following month) | duration of stable effect ([3]; atomoxetine 25 mg po qd) | tolerability of other medications in terms of cognitive functioning ([3]; on atomoxetine 25 mg po qd) | concentration, attention, focus (patient description) ([3]; person on escitalopram, olanzapine, clonazepam, fiorinal, atomoxetine 18 mg po qd increased to 25 mg po qd after 8 days)
1 | CC1(C)O[C@@H]2[C@@H](CO[C@@]3(COS(N)(=O)=O)OC(C)(C)O[C@@H]23)O1 [topiramate] | decreased weight | decreased urges and improved control over their shopping behaviors | word finding difficulty which persisted | – | – | – | – | – | – | – | – | – | – | –
2 | CNCC[C@@H](Oc1ccccc1C)c1ccccc1 [Atomoxetine, atomoxetine] | – | – | – | did not have the same improvement as at 25 mg | felt dizzy and “spacy” | improved concentration without significant side effects | without difficulties in concentration/cognitive functioning | improved concentration and improved ability to work | could tolerate a topiramate dose of 100 mg without difficulty | mild improvement in word finding | noticeable improvement in their word finding | 2 months | able to tolerate their other medications without difficulty in terms of cognitive functioning | improved concentration, attention, and “focus”
